Like-named read-outs stand apart in the source and are kept apart here.
Tests used:
L929 cells = assay: L929 cell necroptosis assay (TNFa + zVAD, CellTiter-Glo); type: cell-based, murine; details: Mus musculus
Description: (§1) In this example, U937 and L929 cells were exposed to compounds of the present disclosure and a cell necroptosis assay was conducted to evaluate the compounds' activity against human RIP1 and murine RIP1.
U937 and L929 cells were obtained from the American Type Culture Collection (Manassa, Va., USA). Both cells were maintained in logarithmic growth phase in complete RPMI 1640 media (Sigma, ST Louis, Mo., USA) supplemented with 10% fetal bovine serum (Sigma, ST Louis, Mo., USA) at 37° C. with 5% CO2. For necroptosis assay, L929 cells were plated for 18 h in 100 μL/well medium at 10K cells/well in Costar 96-well black clear-bottom plates (Fisher Scientific, Hampton, N.H., USA); U937 cells were plated on the day of the assay in 50 4/well medium containing 60 uM zVAD-fink (Lonza, Basel, Switzerland) at 50K cells/well. Medium from L929 cells were removed from the 96-well plates and replaced with 50 μL/well new medium containing 40 uM zVAD-fink. Each compound of the present disclosure evaluated in this example was serially diluted in DMSO from 2.5 mM in 4-fold dilutions, and then diluted 1:125 in complete medium. 50 μL/well 2× of the compound was then added to the cells in the plates. […] The relative amount of necroptosis cells was determined by luminescent using a Wallac Victor2 Luminometer (PerkinElmer, Waltham, Mass., USA) and a CellTiter-Glo® Luminescent Cell Viability Reagent Assay (Promega, Madison, Wis., USA) added per manufacturer instructions after 18 hours of TNFa stimulation at 37° C. with 5% CO2.

U937 cells = assay: U937 cell necroptosis assay (TNFa + zVAD, CellTiter-Glo); type: cell-based, human; details: Homo sapiens
Description: as §1
U937 and L929 cells were obtained from the American Type Culture Collection (Manassa, Va., USA). Both cells were maintained in logarithmic growth phase in complete RPMI 1640 media (Sigma, ST Louis, Mo., USA) supplemented with 10% fetal bovine serum (Sigma, ST Louis, Mo., USA) at 37° C. with 5% CO2. For necroptosis assay, L929 cells were plated for 18 h in 100 μL/well medium at 10K cells/well in Costar 96-well black clear-bottom plates (Fisher Scientific, Hampton, N.H., USA); U937 cells were plated on the day of the assay in 50 4/well medium containing 60 uM zVAD-fink (Lonza, Basel, Switzerland) at 50K cells/well. Medium from L929 cells were removed from the 96-well plates and replaced with 50 μL/well new medium containing 40 uM zVAD-fink. Each compound of the present disclosure evaluated in this example was serially diluted in DMSO from 2.5 mM in 4-fold dilutions, and then diluted 1:125 in complete medium. 50 μL/well 2× of the compound was then added to the cells in the plates. The cells were pre-incubated with the compound for 1 hour at 37° C. with 5% CO2 and before addition of 10 μL/well 1 1×TNFa (Peprotech, Rocky Hill, N.J., USA) to give a final concentration of 2 ng/mL for TNFa. The relative amount of necroptosis cells was determined by luminescent using a Wallac Victor2 Luminometer (PerkinElmer, Waltham, Mass., USA) and a CellTiter-Glo® Luminescent Cell Viability Reagent Assay (Promega, Madison, Wis., USA) added per manufacturer instructions after 18 hours of TNFa stimulation at 37° C. with 5% CO2. This example establishes that embodiments of the compounds described herein have unexpectedly potent activity against human RIP1 and murine RIP1, which allows their assessment in in vivo mouse models of disease.

[1] = L929, L929 cells, TNFa + zVAD, read-out: L929-CTG-recovery, L929, TNFa + zVAD (IC50)
[2] = U-937, U937 cells, TNFa + zVAD, read-out: U937 Zvad TNF CTG Recovery, U937, TNFa + zVAD (IC50)

| Structure (SMILES) | IC50 (L929 cells; [1]) | IC50 (U937 cells; [2]) | IC50 (L929 cells; L929 cells, TNFa + zVAD, read-out: L929-CTG-recovery, L929, TNFa + zVAD (IC50)) | IC50 (L929 cells; L929, read-out: L929-CTG-recovery, L929, TNFa + zVAD (IC50), L929 cells, TNFa + zVAD) | IC50 (U937 cells; U-937, read-out: U937 Zvad TNF CTG Recovery, U937, TNFa + zVAD (IC50), U937 cells, TNFa + zVAD) |
| --- | --- | --- | --- | --- | --- |
| [2H]C([2H])([2H])C(O)(C#Cc1ccc2c(c1)N(C)C(=O)[C@@H](NC(=O)c1cc(Oc3ccccc3)ccn1)CO2)C([2H])([2H])[2H] [Compound I-68, (S)—N-(7-(3-hydroxy-3-(methyl-d3)but-1-yn-1-yl-4,4,4-d3)-5-methyl-4-oxo-2,3,4,5-tetrahydrobenzo[b][1,4]oxazepin-3-yl)-4-phenoxypicolinamide] | 0.3 nM | 0.7 nM | – | – | – |
| [2H]C([2H])([2H])C(O)(C#Cc1ccc2c(c1)N(C)C(=O)[C@@H](NC(=O)c1n[nH]c(Cc3ccccc3)n1)CO2)C([2H])([2H])[2H] [Compound I-69, (S)-5-benzyl-N-(7-(3-hydroxy-3-(methyl-d3)but-1-yn-1-yl-4,4,4-d3)-5-methyl-4-oxo-2,3,4,5-tetrahydrobenzo[b][1,4]oxazepin-3-yl)-1H-1,2,4-triazole-3-carboxamide] | 0.9 nM | 2.2 nM | – | – | – |
| CN1C(=O)[C@@H](NC(=O)c2n[nH]c(Cc3ccccc3)n2)COc2ccc(/C=C(\Cl)C(C)(C)O)cc21 [Compound I-94, (S,Z)-5-benzyl-N-(7-(2-chloro-3-hydroxy-3-methylbut-1-en-1-yl)-5-methyl-4-oxo-2,3,4,5-tetrahydrobenzo[b][1,4]oxazepin-3-yl)-1H-1,2,4-triazole-3-carboxamide] | – | 22 nM | 4.6 nM | – | – |
| CN1C(=O)[C@@H](NC(=O)c2cc(Oc3ccccc3)ccn2)COc2ccc(C#CC3(O)COC3)cc21 [Compound I-110, (S)—N-(7-((3-hydroxyoxetan-3-yl)ethynyl)-5-methyl-4-oxo-2,3,4,5-tetrahydrobenzo[b][1,4]oxazepin-3-yl)-4-phenoxypicolinamide] | 18.8 nM | 0.4 nM | – | – | – |
| CN1C(=O)[C@H](NC(=O)c2cc(Oc3ccccc3)ccn2)COc2ccc(C#CC(C)(C)O)cc21 [Compound I-113, (R)—N-(7-(3-hydroxy-3-methylbut-1-yn-1-yl)-5-methyl-4-oxo-2,3,4,5-tetrahydrobenzo[b][1,4]oxazepin-3-yl)-4-phenoxypicolinamide] | 2340 nM | 31.5 nM | – | – | – |
| CN1C(=O)[C@@H](NC(=O)c2cc(Oc3ccccc3)ccn2)COc2ccc(C#CC3(F)CNC3)cc21 [Compound I-143] | – | – | – | 197 nM | 3.5 nM |
| CC(C)N1CC(F)(C#Cc2ccc3c(c2)N(C)C(=O)[C@@H](NC(=O)c2cc(Oc4ccccc4)ccn2)CO3)C1 [Compound I-166, (S)—N-(7-((3-fluoro-1-isopropylazetidin-3-yl)ethynyl)-5-methyl-4-oxo-2,3,4,5-tetrahydrobenzo[b][1,4]oxazepin-3-yl)-4-phenoxypicolinamide] | 27.7 nM | 1 nM | – | – | – |
| CN1C(=O)[C@@H](NC(=O)c2cc(Oc3ccccc3)ccn2)COc2ccc(C#CC3(F)CN(CC(F)(F)F)C3)cc21 [Compound I-168, (S)—N-(7-((3-fluoro-1-(2,2,2-trifluoroethyl)azetidin-3-yl)ethynyl)-5-methyl-4-oxo-2,3,4,5-tetrahydrobenzo[b][1,4]oxazepin-3-yl)-4-phenoxypicolinamide] | 103 nM | 0.9 nM | – | – | – |
| CN1C(=O)[C@@H](NC(=O)c2cc(Oc3ccccc3)ccn2)COc2ccc(C#CC3(F)CN(CC4CC4)C3)cc21 [Compound I-169, (S)—N-(7-((1-(cyclopropylmethyl)-3-fluoroazetidin-3-yl)ethynyl)-5-methyl-4-oxo-2,3,4,5-tetrahydrobenzo[b][1,4]oxazepin-3-yl)-4-phenoxypicolinamide] | 148 nM | 2.2 nM | – | – | – |
| CN1C(=O)[C@@H](NC(=O)c2cc(Oc3ccc(F)cc3)ccn2)COc2ccc(C#CC(C)(C)COC(=O)CCC(=O)O)cc21 [Compound I-170, (S)-4-((4-(3-(4-(4-fluorophenoxy)picolinamido)-5-methyl-4-oxo-2,3,4,5-tetrahydrobenzo[b][1,4]oxazepin-7-yl)-2,2-dimethylbut-3-yn-1-yl)oxy)-4-oxobutanoic acid] | 1840 nM | 14.8 nM | – | – | – |
| C[C@H](N)C(=O)OCC(C)(C)C#Cc1ccc2c(c1)N(C)C(=O)[C@@H](NC(=O)c1cc(Oc3ccc(F)cc3)ccn1)CO2 [Compound I-171, 4-((S)-3-(4-(4-fluorophenoxy)picolinamido)-5-methyl-4-oxo-2,3,4,5-tetrahydrobenzo[b][1,4]oxazepin-7-yl)-2,2-dimethylbut-3-yn-1-yl L-alaninate] | 394 nM | 6.4 nM | – | – | – |
| CC(C)[C@H](N)C(=O)OCC(C)(C)C#Cc1ccc2c(c1)N(C)C(=O)[C@@H](NC(=O)c1cc(Oc3ccc(F)cc3)ccn1)CO2 [Compound I-172, 4-((S)-3-(4-(4-fluorophenoxy)picolinamido)-5-methyl-4-oxo-2,3,4,5-tetrahydrobenzo[b][1,4]oxazepin-7-yl)-2,2-dimethylbut-3-yn-1-yl L-valinate] | 850 nM | 22.1 nM | – | – | – |
| CN1C(=O)[C@@H](NC(=O)c2cc(Oc3ccccc3)ccn2)COc2ccc(C#CC(C)(C)COP(=O)(O)O)cc21 [Compound I-173, (S)-2,2-dimethyl-4-(5-methyl-4-oxo-3-(4-phenoxypicolinamido)-2,3,4,5-tetrahydrobenzo[b][1,4]oxazepin-7-yl)but-3-yn-1-yl dihydrogen phosphate] | 2860 nM | 48.5 nM | – | – | – |
| CN1C(=O)[C@@H](NC(=O)c2cc(Oc3ccc(F)cc3)ccn2)COc2ccc(C#CC(C)(C)COP(=O)(O)O)cc21 [Compound I-174, (S)-4-(3-(4-(4-fluorophenoxy)picolinamido)-5-methyl-4-oxo-2,3,4,5-tetrahydrobenzo[b][1,4]oxazepin-7-yl)-2,2-dimethylbut-3-yn-1-yl dihydrogen phosphate] | 16500 nM | 438 nM | – | – | – |
| [2H]c1c([2H])c([2H])c(Oc2ccnc(C(=O)N[C@H]3COc4ccc(C#CC5(O)COC5)cc4N(C)C3=O)c2)c([2H])c1[2H] [Compound I-190, (S)—N-(7-((3-hydroxyoxetan-3-yl)ethynyl)-5-methyl-4-oxo-2,3,4,5-tetrahydrobenzo[b][1,4]oxazepin-3-yl)-4-(phenoxy-d5)picolinamide] | – | 0.6 nM | – | – | – |
| CN1C(=O)[C@@H](NC(=O)c2cc(Oc3ccccc3)ccn2)COc2ccc(C#CC3(O)CN(CC4CC4)C3)cc21 [Compound I-196, (S)—N-(7-((1-(cyclopropylmethyl)-3-hydroxyazetidin-3-yl)ethynyl)-5-methyl-4-oxo-2,3,4,5-tetrahydrobenzo[b][1,4]oxazepin-3-yl)-4-phenoxypicolinamide] | 201 nM | 3.3 nM | – | – | – |
| CC(=O)N1CC(O)(C#Cc2ccc3c(c2)N(C)C(=O)[C@@H](NC(=O)c2cc(Oc4ccccc4)ccn2)CO3)C1 [Compound I-197, (S)—N-(7-((1-acetyl-3-hydroxyazetidin-3-yl)ethynyl)-5-methyl-4-oxo-2,3,4,5-tetrahydrobenzo[b][1,4]oxazepin-3-yl)-4-phenoxypicolinamide] | 70.6 nM | 0.7 nM | – | – | – |
| CCNC(=O)N1CC(O)(C#Cc2ccc3c(c2)N(C)C(=O)[C@@H](NC(=O)c2cc(Oc4ccccc4)ccn2)CO3)C1 [Compound I-198, (S)—N-(7-((1-(ethylcarbamoyl)-3-hydroxyazetidin-3-yl)ethynyl)-5-methyl-4-oxo-2,3,4,5-tetrahydrobenzo[b][1,4]oxazepin-3-yl)-4-phenoxypicolinamide] | 39.1 nM | 0.9 nM | – | – | – |

Source: patent publication US11407736B2 (priority 2019, dated 2022)
